According to patent publication US9937234B2, “Compositions and methods for using and identifying antimicrobial agents” (priority 2013, dated 2018):

Test system: B. anthracis Sterne strain ΔftsX
Format: cell-based, Bacillus anthracis

Row | Molecule | susceptibility of ΔftsX | susceptibility of ΔftsX exponential and stationary phase organisms | susceptibility of ΔftsX to CXCL10-mediated killing
1 | human CXCL9 | resistant | – | –
2 | human CXCL10 | – | both resistant | resistance
3 | human CXCL11 (protein, listed as Homo sapiens) QGFPMFKRGRCLCIGPGVKAVKVADIEKASIMYPSNNCDKIEVIITLKENKGQRCLNPKSKQARLIIKKVERKNF | resistant | – | –
